Tested on: cardiac gene expression
Assay: Microarray analysis of cardiac gene expression (GeneChip Mouse Genome 430 2.0)
Type: in vivo, mice
Details: for FC Transglutaminase 2, C polypeptide (Tgm2): CH vs normal FC 2.0
Procedure: Microarray Sample Preparation and Analysis. Animal hearts were rapidly removed, and the atria and right ventricles were cut and immediately plunged into TRIzol Reagent (Life Technologies). Total RNA was isolated following the manufacturer's instructions, purified by phenol-chloroform extraction and then ethanol precipitation, and 20 μg further processed for microarray analysis. Briefly, cDNA synthesis, in vitro transcription, and labeling and fragmentation to produce the oligonucleotide probes were performed as instructed by the GeneChip manufacturer (Affymetrix). The probes were first hybridized to a test array (Affymetrix) and then to the GeneChip Mouse Genome 430 2.0 Array, using the GeneChip Hybridization Oven 640. The chips were washed in a GeneChip Fluidics Station 450 (Affymetrix), and the results were visualized with a GeneChip G7 scanner (Affymetrix). RMA normalization, pairwise comparisons, Student's t test and Benjamini and Hochberg correction were subsequently performed using GeneSifter (VizX Labs, Seattle, Wash.) and Spotfire DecisionSite 8.3 (Spotfire, Inc., Somerville, Mass.).
Effects on Gene Expression Profile. […] One mouse heart was used for each array, and was performed in triplicate, generating a total of 12 arrays. GeneSifter was used to perform RMA normalization, pairwise comparisons of averaged signal intensity values, and Student's t-test with Benjamini and Hochberg correction, and Spotfire was used to perform pairwise comparisons. […] Additionally, genes that were altered between any two N or cardiac hypertrophy samples were removed, as these alterations most likely represented normal variations between mice.

## C[C@H]1c2cccc(O)c2C(=O)C2=C(O)[C@]3(O)C(=O)C(C(N)=O)=C(O)[C@@H](N(C)C)[C@@H]3[C@@H](O)[C@@H]21 [doxycycline]
GenBank AV274826, vs mice given only isoproterenol
  FC IBR domain containing 2 (Ibrdc2): −2.1
GenBank AV286265, heart, drug + isoproterenol vs isoproterenol-only mice, CH vs normal FC 3.9
  FC Xanthine dehydrogenase (Xdh): −3.0 fold
GenBank AV290688, heart, drug + isoproterenol vs isoproterenol-only mice, CH vs normal FC 3.3
  FC UDP-N-acetyl-alpha-D-galactosamine:polypeptide N-acetylgalactosaminyltransferase-like 2 (Galntl2): −2.8 fold
GenBank AV291679, vs mice given only isoproterenol
  FC Ras association (RalGDS/AF-6) domain family 4 (Neuropeptide signaling): −2.2
GenBank AV296217, vs mice given only isoproterenol
  FC Syntaxin 3 (Stx3): −1.6
GenBank AV318727, vs mice given only isoproterenol
  FC EST: 2.6
GenBank AV338062, vs mice given only isoproterenol
  FC F-box-WD40 repeat protein 6 (Fbxw6): 1.9
GenBank AW123929, vs mice given only isoproterenol
  FC EST: −1.8
GenBank AW208574, vs mice given only isoproterenol
  FC EST: −1.9
GenBank AW546141, vs mice given only isoproterenol
  FC Myristoylated alanine rich protein kinase C substrate (Marcks): 1.7
GenBank AW985925, heart, drug + isoproterenol vs isoproterenol-only mice, CH vs normal FC 2.8
  FC Transmembrane protein 23 (Tmem23): −2.1 fold
GenBank AY061760, vs mice given only isoproterenol
  FC Nuclear factor, interleukin 3, regulated (Nfil3): −2.5
GenBank BB003229, vs mice given only isoproterenol
  FC RasGEF domain family, member 1B (Rasgef1b): −2.4
GenBank BB041811, heart, drug + isoproterenol vs isoproterenol-only mice
  FC Transglutaminase 2, C polypeptide (Tgm2): −1.7 fold
GenBank BB069531, vs mice given only isoproterenol
  FC EST: 2.1
GenBank BB083808, vs mice given only isoproterenol
  FC G protein-coupled receptor 116 (Gprl16): −2.0
GenBank BB096843, vs mice given only isoproterenol
  FC EST: −1.8
GenBank BB106402, vs mice given only isoproterenol
  FC RAN binding protein 9 (Ranbp9): −2.6
GenBank BB109391, vs mice given only isoproterenol
  FC EST: −1.8
GenBank BB122084, heart, drug + isoproterenol vs isoproterenol-only mice, CH vs normal FC 2.3
  FC Tumorsuppressor St7-like (St7l): −2.1 fold
GenBank BB126077, vs mice given only isoproterenol
  FC Kyphoscoliosis peptidase (Ky): 1.8
GenBank BB127176, vs mice given only isoproterenol
  FC EST: −1.7
GenBank BB133079, vs mice given only isoproterenol
  FC Endothelial differentiation sphingolipid G-protein-coupled receptor 1 (Edg1): −2.4
GenBank BB193024, vs mice given only isoproterenol
  FC Interferon induced transmembrane protein 6 (Ifitm6): −3.3
GenBank BB217136, vs mice given only isoproterenol
  FC RAS, dexamethasone-induced 1 (Rasd1): −3.3
GenBank BB219003, vs mice given only isoproterenol
  FC EST: −2.1
GenBank BB222675, vs mice given only isoproterenol
  FC Inner membrane protein, mitochondrial (Immt): 4.9
GenBank BB236747, vs mice given only isoproterenol
  FC EST: −1.7
GenBank BB253720, vs mice given only isoproterenol
  FC Procollagen-proline, 2-oxoglutarate 4-dioxygenase (proline 4-hydroxylase), alpha 1 polypeptide (P4ha1): 1.9
GenBank BB257769, vs mice given only isoproterenol
  FC MAD homolog 1 (Smad1): −1.9
GenBank BB312992, vs mice given only isoproterenol
  FC EST: −2.1
GenBank BB326368, heart, drug + isoproterenol vs isoproterenol-only mice, CH vs normal FC 5.1
  FC Zi finger and BTB domain containing 16 (Zbtb16): −1.8 fold
GenBank BB328076, vs mice given only isoproterenol
  FC Kelch-like 24 (Khl24): −2.2
GenBank BB328405, heart, drug + isoproterenol vs isoproterenol-only mice, CH vs normal FC 5.6
  FC Tissue inhibitor of metalloproteinase 4 (Timp4): −2.8 fold
GenBank BB333759, vs mice given only isoproterenol
  FC Leucine-rich repeat-containing 8c (Lrrc8c): −1.7
GenBank BB335101, vs mice given only isoproterenol
  FC EST: 2.2
GenBank BB345784, vs mice given only isoproterenol
  FC Insulin receptor substrate 1 (Irs1): −1.7
GenBank BB354684, heart, drug + isoproterenol vs isoproterenol-only mice, CH vs normal FC −1.9
  FC Tribbles homolog 2 (Trib2): 1.6 fold
GenBank BB374879, vs mice given only isoproterenol
  FC EST: 2.7
GenBank BB405795, heart, drug + isoproterenol vs isoproterenol-only mice, CH vs normal FC 2.8
  FC Transcription factor Dp 2 (Tfdp2): −2.2 fold
GenBank BB434111, vs mice given only isoproterenol
  FC Inositol 1,4,5-trisphosphate 3-kinase B (Itpkb): 2.5
GenBank BB476794, vs mice given only isoproterenol
  FC EST: 1.9
GenBank BB490701, vs mice given only isoproterenol
  FC Histone 1, H1e (Hist1h2be): −1.7
GenBank BB493265, vs mice given only isoproterenol
  FC RNA, U22 small nucleolar: −1.8
GenBank BB503935, vs mice given only isoproterenol
  FC F-box and leucine-rich repeat protein 13 (Fbxl13): 1.9
GenBank BB534069, vs mice given only isoproterenol
  FC OTU domain, ubiquitin aldehyde binding 1 (Otub1): 2.0
GenBank BB535847, vs mice given only isoproterenol
  FC EST: −2.0
GenBank BB550124, heart, drug + isoproterenol vs isoproterenol-only mice
  FC Transglutaminase 2, C polypeptide (Tgm2): −1.7 fold
GenBank BB667216, heart, drug + isoproterenol vs isoproterenol-only mice, CH vs normal FC 2.3
  FC Von Willebrand factor homolog (Vwf): −1.7 fold
GenBank BB667395, vs mice given only isoproterenol
  FC Dehydrogenase E1 and transketolase domain containing 1 (Dhtkd1): −2.1
GenBank BB732903, vs mice given only isoproterenol
  FC Fibroblast growth factor receptor 3 (Fgfr3): −2.1
GenBank BB757992, vs mice given only isoproterenol
  FC Period homolog 3 (Per3): 2.3
GenBank BB794710, vs mice given only isoproterenol
  FC Serine palmitoyltransferase, long chain base subunit 2 (Sptlc2): −2.1
GenBank BB811478, vs mice given only isoproterenol
  FC Nucleoplasmin 3 (Npm3): 2.1
GenBank BB822465, vs mice given only isoproterenol
  FC Heterogeneous nuclear ribonucleoprotein R (Hnrpr): 1.8
GenBank BC003209, vs mice given only isoproterenol
  FC Integrator complex subunit 3 (Ints3): −2.2
GenBank BC003438, vs mice given only isoproterenol
  FC Solute carrier family 39 (iron-regulated transporter), member 1 (Slc40a1): −2.1
GenBank BC004057, heart, drug + isoproterenol vs isoproterenol-only mice, CH vs normal FC 2.8
  FC Transforming, acidic coiled-coil containing protein 2 (Tacc2): −2.1 fold
GenBank BC004826, vs mice given only isoproterenol
  FC Lutheran blood group (Auberger b antigen iluded) (Bcam): 1.6
GenBank BC005547, heart, drug + isoproterenol vs isoproterenol-only mice, CH vs normal FC −1.7
  FC Tubulin, beta 2c (Tubb2c): 2.5 fold
